From US7655629B2, “Peptides and their use for the treatment of HIV infections” (priority 2002, dated 2010)
Entries after “also recorded” stand apart in the source; their conditions may differ. Positions of bridges follow the written chain, without caps; N, C: chain ends. Residues, ends and D or L forms follow the SMILES beside them.

Assays:
[1] = test system: X4-tropic HIV-1 NL4-3; settings: read-out: IC50 NL4-3; P4-CCR5 cells, HIV-1 NL4-3, peptide 2 h before infection, readout three days after infection
In short: (§1)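 P4-CCR5 cells (CD4, CCR5, CXCR4, HIV-1 promoter-driven β-galactosidase) pretreated 2 h with peptide, then infected with virus containing 1 ng p24 antigen and incubated overnight. Cells washed and cultured without peptide; three days post-infection infectivity read by chemiluminescent β-galactosidase assay, in quintuplicate.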

[2] = test system: HIV-1 NL4-3 DTV; settings: read-out: IC50 DTV, P4-CCR5 cells, peptide 2 h before infection, readout three days after infection
In short: as §1

[3] = test system: human monocytic THP-1 cells; assay: Cytotoxicity on human cells, WST-1 assay; settings: 24 hours, 30, 100, 300 and 1000 μg/mL
Procedure: The cytotoxicity of peptides of the invention was tested by evaluating the viability of human monocytic THP-1 cells. Cytotoxic effects of the peptides were tested by their influence on metabolic activity by means of the WST-1 assay (Roche Diagnostics, Germany). THP-1 cells were incubated with test peptides in a 96-well plate (approx. 25,000 cells per well) for 24 hours in RPMI-1640 medium containing 25 mM L-glutamine and 10 volume % fetal calf serum at 37° C. in an atmosphere with 5 volume % CO2. Ten μl of a WST-1 solution was added to each cavity, and incubation of THP-1 cells was allowed for 2 further hours at corresponding conditions. Metabolically active THP-1 cells reduce WST-1, a light red tetrazolium salt, yielding a soluble yellow formazan salt. The amount of reduced WST-1 correlates directly to the number of living cells, and is measured photometrically at a wavelength of λ=450 nm using a microtiter plate reader (reference wavelength is 630 nm). As a positive control, the known cytotoxic substance cycloheximide was used at a concentration of 50 μg/ml; the cytotoxicity of cycloheximide was set to 100%. […] The cytotoxicity of VIRIP peptides was calculated using the formula Viability [%]=[A450 nm (peptide)−A450 nm (cycloheximide)]/[A450 nm (negative control)−A450 nm (cycloheximide)]*100 and was correlated to the averaged viability of untreated THP-1 cells. […]

[4] = molecular target: T1, synthetic fusion peptide of HIV gp41 (Human immunodeficiency virus type 1 group M subtype B, UniProt P04578); assay: Inhibition of fusion peptide-induced hemolysis; assay type: cell-based; settings: peptides at 1000, 100 and 10 μM preincubated with 100 μM fusion peptide, human erythrocytes, hemoglobin release
T1 construct: The fusion peptide is the very amino-terminal part of gp41 consisting of about 30 amino acid residues
Procedure: The synthetic fusion peptide of HIV gp41 causes concentration-dependent hemolysis which can be measured by hemoglobin released by erythrocytes.
Peptides and any other substance binding to the fusion peptide impair its potency to lyse erythrocytes by changing its structural properties. The inhibition of fusion peptide induced hemolysis was tested as follows: Blood from healthy donors was collected in citrate monovettes and the erythrocytes were extracted by a standard centrifugation and washing protocol known to the skilled person. The final erythrocyte-containing pellett was diluted 1:100 with phosphate-saline buffer. To the peptides (10, 100, or 1000 equivalents) 20 μl of a 100 μM fusion peptide solution in 10% DMSO were added and the solution was diluted to 100 μl with phosphate-buffered saline. A 60 min incubation at 37° C. was carried out. After the preincubation the samples were transferred to 96-well plates and 100 μl of the erythrocyte suspension were added and incubated for 60 min at 37° C. […] The 96-well plate is centrifuged 5 min at 2800 rpm and of the supernatant fluid 150 μl were transferred to a flat-bottom microtiter plate, and the absorbance was measured at 450 nm. The percentage hemolysis was calculated by: [(A450 of the peptide treated sample—A450 of buffer treated sample)/(A450 of Tween-20 treated sample—A450 of buffer treated sample)]×100%.

T1 sequence (P04578 512-532): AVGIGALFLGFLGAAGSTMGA

CC[C@H](C)[C@H](NC(=O)[C@H](C)NC(=O)[C@H](CCC(=O)O)NC(=O)[C@@H](N)CC(C)C)C(=O)N1CCC[C@H]1C(=O)N[C@H]1CSSC[C@@H](C(=O)N[C@H](C(=O)N[C@@H](Cc2ccccc2)C(=O)N[C@@H](Cc2ccccc2)C(=O)N[C@@H](CC(N)=O)C(=O)N[C@@H](CCCCN)C(=O)N2CCC[C@H]2C(=O)N[C@@H](Cc2ccccc2)C(=O)N[C@H](C(=O)N[C@@H](Cc2ccccc2)C(=O)O)C(C)C)C(C)C)NC(=O)[C@@H]2CCCN2C(=O)[C@@H]2CCCN2C(=O)[C@H]([C@@H](C)CC)NC(=O)[C@H](CO)NC1=O [VIR-164] (H-LEAIPCSIPPCVFFNKPFVF-OH; disulfide 6-11)
IC50 [1]: 340 nM
IC50 [2]: 370 nM
cytotoxic effect on THP-1 cells [3]: free of any cytotoxic effect; also recorded: did not exhibit a cytotoxic effect
inhibition of fusion peptide-induced hemolysis [4]: Dose dependent inhibition
